Assay results: US11739194B2, “Glycerol-silicone elastomers as active matrices with controllable release profiles” (Danmarks Tekniske Universitet, priority 2017, dated 2023)

How the values were obtained:
[1] = Hydroquinone release from single compartment glycerol-silicone elastomers immersed in deionized water (UV-vis); assay type: physicochemical; settings: hydroquinone alone (single glycerol phase), 80 phr total glycerol concentration
Experimental: The example provided leads to a 1.42 g batch of material that may readily be scaled up or down. Using the described method batches from between 1 g and 80 g were prepared. Hydroquinone (HQ, 0.02 g, 5 wt. %) was dissolved in glycerol (0.4 g) at 50° C. using magnetic stirring until a clear solution was obtained (typically around 1-2 hours). […] Sample nomenclature uses the pattern GX HQY S184 Z, where G and X correspond to glycerol and concentration of glycerol in phr (weight parts per hundred weight parts of silicone elastomer), HQ and Y correspond to hydroquinone and concentration of hydroquinone dissolved in glycerol (expressed as weight percentage of HQ in glycerol) and S184 corresponds to applied silicone composition, respectively. […]
Release profiles of HQ from the glycerol-silicone elastomers were determined by immersing composites containing various amounts of glycerol with 5 wt % of HQ in deionized water. The progress of hydroquinone release was monitored by measuring changes in concentration of hydroquinone in the aqueous environment. A UV-vis spectrophotometer POLARstar Omega microplate reader by BMG LabTech was used for the tests, and outcomes were compared against a calibration curve for hydroquinone/water solutions. […]

[2] = Erythrosine B and hydroquinone release from dual compartment glycerol-silicone elastomer immersed in deionized water (UV-vis); assay type: physicochemical; settings: for release kinetics (order): dual compartment elastomer, 80 phr total glycerol concentration
Experimental: For the present experiment two solutions were prepared—glycerol-erythrosine B and glycerol-hydroquinone solutions. Glycerol-erythrosine B solution contained 4 g of glycerol and 0.04 g of erythrosine B. Glycerol-hydroquinone solution contained 4 g of glycerol and 0.2 g of hydroquinone. Single emulsions were prepared as detailed above and were subsequently used to prepare two distinct glycerol-in-silicone emulsions. The glycerol-erythrosine B and glycerol-hydroquinone solutions were each added to 5 g of a silicone prepolymer in respective, separate containers. In this case, Sylgard 184 silicone kit from Dow Corning was applied. The respective mixtures were subsequently speed-mixed for 2 to 5 minutes using a dual asymmetric centrifuge DAC SpeedMixer. To prepare the dual compartment silicone elastomers, the two glycerol-in-silicone emulsions were combined. Desired amounts of each of the emulsions were placed into a speed-mixing cup. The composition was subsequently speed-mixed at low mixing rates (typically between from 500 to 1000 rpm) for around 1 minute in order to uniformly distribute both types of droplets within the silicone matrix. Stable emulsions can be mixed with any given speed. […] After combining and mixing both single emulsions a dual compartment emulsion was obtained. The emulsion contained 10 g of silicone, 4.04 g of glycerol droplets containing erythrosine B and 4.2 g of glycerol droplets containing hydroquinone. The total mass of the emulsion was 18.24 g. In a final step, the elastomer emulsions were cured at 80° C. for 1 hour. Long exposure to high temperatures results in glycerol evaporation therefore prolonged high temperature curing should be avoided. […] Release profiles of erythrosine and hydroquinone from the glycerol-silicone elastomers were determined by immersing composites in deionized water. The progress of release of erythrosine B and hydroquinone was monitored by measuring changes in concentration of both compounds in the aqueous environment. […] Each release profile curve represents an average of three separate experiments. Films with thickness of 0.3 mm were investigated. Such thin films tend to self-adhere therefore they were mounted onto custom-made frames (FIG. 4) to maintain a constant exposed surface area and placed in beakers equipped with magnetic stirring.

Molecule | release kinetics (order) [1] | time after which the entire incorporated amount was released ([2]; 0.3 mm thick dual compartment elastomer, 40 phr glycerol with erythrosine B + 40 phr glycerol with hydroquinone) | share of the total amount released with zero-order kinetics ([2]; 0.3 mm thick dual compartment elastomer, 80 phr glycerol in total) | release kinetics (order) [2] | amount released ([2]; after 28 hours, 0.3 mm thick dual compartment elastomer, 80 phr glycerol in total)
Oc1ccc(O)cc1 [hydroquinone] | near-zero order release kinetics | around 6 hours | ~80% | zero-order release kinetics | 
erythrosine B |  |  |  | zero-order kinetics throughout the whole experiment | 15%
